Where two headings read alike, the source gives them in different places.
Experiment: Blood and cerebrospinal fluid pharmacokinetics after acute intraperitoneal administration in freely moving rats
Assay type: in vivo
Conditions: for serum and CSF concentrations versus dose: intraperitoneal, 20, 40 and 80 mg/kg; for Elimination half-life (t1/2)-CSF (Mean) / penetration of the blood brain barrier / Elimination half-life (t1/2)-Serum (Mean): intraperitoneal; for penetration of the blood brain barrier: appearance in serum and CSF; for Tmax: rat, ip, acute intraperitoneal, 20, 40 and 80 mg/kg
Procedure: Blood and Cerebrospinal Fluid Pharmacokinetics in Comparison of the Levetiracetam and Formula II (2-1) in Rats
The temporal pharmacokinetic interrelationship of levetiracetam and Formula II (2-1) in blood and cerebrospinal fluid (CSF) was studied after acute intraperitoneal administration of levetiracetam and Formula II (2-1), (20, 40 and 80 mg/kg), using an animal model that permits concurrent blood and CSF sampling in freely moving rats.

[1] = cerebrospinal fluid, read-out: Tmax mean range, CSF
[2] = serum, read-out: time to maximum concentration (Tmax) mean range, serum

| Elimination half-life (t1/2)-CSF (Mean) [h] | Elimination half-life (t1/2)-Serum (Mean) (serum) [h] | Tmax [1] [h] | Tmax [2] [h] | Structure (SMILES) | serum and CSF concentrations versus dose | penetration of the blood brain barrier |
| --- | --- | --- | --- | --- | --- | --- |
| 4.8 to 5.6 | 2.3 to 3.4 | 2.14 to 2.83 | 0.47 to 0.89 | CC[C@@H](C(=O)NC(=O)OC(C)OC(=O)CCCC[C@@H]1CCSS1)N1CCCC1=O (stereo partly drawn) [Formula II (2-1)] | rose essentially linearly and dose-dependently | ready penetration of the blood brain barrier |
| 4.4 to 4.9 | 1.8 to 2.8 | 1.33 to 1.92 | 0.25 to 0.5 | CC[C@@H](C(N)=O)N1CCCC1=O [levetiracetam] | rose essentially linearly and dose-dependently | ready penetration of the blood brain barrier |

Reference: patent US9290486B1, “Compositions and methods for the treatment of epilepsy” (CELLIX BIO PRIVATE LIMITED, priority 2014, dated 2016)
